Data published in paper PMC6941756 (Biochemistry, 2019).

Target: HIV-1 protease KY variant (Human immunodeficiency virus 1, UniProt P12497, L577V/L578M/Q495K, form not given)

For `CC(C)CN(C[C@@H](O)[C@H](Cc1ccccc1)NC(=O)O[C@H]1CO[C@H]2OCC[C@H]21)S(=O)(=O)c1ccc(N)cc1` [DRV, darunavir], the “times more tightly bound than expected under additivity of binding free energies” value (KY variant protease) was “about 3.5 times” and the “increase in Ki compared with the NL4–3 WT protease” value (all of the KY variants vs NL4–3 WT) was ≥ 500 fold.
